# Values joined by “and” are separate entries in the source; they are usually repeats but may differ in a detail not shown here. Equal entries are not always repeated.
# Test system: T-47D spheroids with HUVEC/MSC, viability
# Test: Anticancer human tumor T-47D cell line growth inhibition [PI3K];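 also: spheroids exposed to agents for seven days before reading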;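 as to viability, T/C: percent of DMSO vehicle control luminescence so 100% = untreated growth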
# Details: for viability, T/C: stronger effect = lower value
# Outline: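 Viability of mixed-cell spheroids was determined after exposure to pairwise combinations, one partner being inavolisib, alpelisib, duvelisib or copanlisib. Highest tested concentration matched clinical Cmax where known and 10 microM where not, descending in half-log steps.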
# [1] = curve of first compound, second compound 0.00316 µM
# [2] = curve of first compound, second compound 0.01 µM
# [3] = curve of first compound, second compound 0.0316 µM
# [4] = curve of first compound, second compound 0.1 µM
# [5] = curve of first compound, second compound 0.316 µM
# [6] = curve of first compound, second compound 1 µM
# [7] = second compound 0.00316 µM, first compound 0.0316 µM
# [8] = second compound 0.00316 µM, first compound 0.1 µM
# [9] = second compound 0.01 µM, first compound 0.0316 µM
# [10] = second compound 0.01 µM, first compound 0.1 µM
# [11] = second compound 0.0316 µM, first compound 0.0316 µM
# [12] = second compound 0.0316 µM, first compound 0.1 µM
# [13] = second compound 0.1 µM, first compound 0.0316 µM
# [14] = second compound 0.1 µM, first compound 0.1 µM
# [15] = second compound 0.316 µM, first compound 0.0316 µM
# [16] = second compound 0.316 µM, first compound 0.1 µM
# [17] = second compound 1 µM, first compound 0.0316 µM
# [18] = second compound 1 µM, first compound 0.1 µM
compound,measurement,setting,value
C#Cc1c(F)ccc2cc(O)cc(-c3ncc4c(N5CC6CCC(C5)N6)nc(OCC56CCCN5CC(F)C6)nc4c3F)c12 (configuration not stated) + CC(Nc1ccc2c(c1)OCCn1cc(N3C(=O)OCC3C(F)F)nc1-2)C(N)=O,IC50,[1],> 10 µM
same,IC50,[2],> 10 µM
same,IC50,[3],> 10 µM
same,IC50,[4],> 10 µM
same,IC50,[5],> 10 µM
same,IC50,[6],> 10 µM
same,"viability, T/C",[7],96.3%
same,"viability, T/C",[8],85.3%
same,"viability, T/C","second compound 0.00316 µM, first compound 0.316 µM",85.6%
same,"viability, T/C","second compound 0.00316 µM, first compound 1 µM",78.3%
same,"viability, T/C","second compound 0.00316 µM, first compound 3.16 µM",90.9%
same,"viability, T/C","second compound 0.00316 µM, first compound 10 µM",84.1%
same,"viability, T/C",[9],107%
same,"viability, T/C",[10],82.3%
same,"viability, T/C","second compound 0.01 µM, first compound 0.316 µM",102%
same,"viability, T/C","second compound 0.01 µM, first compound 1 µM",100%
same,"viability, T/C","second compound 0.01 µM, first compound 3.16 µM",95.2%
same,"viability, T/C","second compound 0.01 µM, first compound 10 µM",92.9%
same,"viability, T/C",[11],83.3%
same,"viability, T/C",[12],77.8%
same,"viability, T/C","second compound 0.0316 µM, first compound 0.316 µM",97.8%
same,"viability, T/C","second compound 0.0316 µM, first compound 1 µM",79%
same,"viability, T/C","second compound 0.0316 µM, first compound 3.16 µM",94.6%
same,"viability, T/C","second compound 0.0316 µM, first compound 10 µM",89.1%
same,"viability, T/C",[13],99.8%
same,"viability, T/C",[14],83%
same,"viability, T/C","second compound 0.1 µM, first compound 0.316 µM",79%
same,"viability, T/C","second compound 0.1 µM, first compound 1 µM",88.6%
same,"viability, T/C","second compound 0.1 µM, first compound 3.16 µM",91.1%
same,"viability, T/C","second compound 0.1 µM, first compound 10 µM",81.4%
same,"viability, T/C",[15],62.7%
same,"viability, T/C",[16],70.7%
same,"viability, T/C","second compound 0.316 µM, first compound 0.316 µM",76.8%
same,"viability, T/C","second compound 0.316 µM, first compound 1 µM",59.9%
same,"viability, T/C","second compound 0.316 µM, first compound 3.16 µM",70.8%
same,"viability, T/C","second compound 0.316 µM, first compound 10 µM",61.3%
same,"viability, T/C",[17],48.8%
same,"viability, T/C",[18],55.3%
same,"viability, T/C","second compound 1 µM, first compound 0.316 µM",61.2%
same,"viability, T/C","second compound 1 µM, first compound 1 µM",43.7%
same,"viability, T/C","second compound 1 µM, first compound 3.16 µM",46.1%
same,"viability, T/C","second compound 1 µM, first compound 10 µM",62.5%
Cn1ncnc1[C@H]1c2n[nH]c(=O)c3cc(F)cc(c23)N[C@@H]1c1ccc(F)cc1 + COc1c(OCCCN2CCOCC2)ccc2c3n(c(=NC(=O)c4cnc(N)nc4)nc12)CCN3,IC50,[1],> 0.1 µM
same,IC50,[2],> 0.1 µM
same,IC50,[3],> 0.1 µM
same,IC50,[4],< 0.000316 µM
same,IC50,[5],< 0.000316 µM
same,IC50,[6],< 0.000316 µM
same,"viability, T/C","second compound 0.00316 µM, first compound 0.000316 µM",102%
same,"viability, T/C","second compound 0.00316 µM, first compound 0.001 µM",87.4%
same,"viability, T/C","second compound 0.00316 µM, first compound 0.00316 µM",112%
same,"viability, T/C","second compound 0.00316 µM, first compound 0.01 µM",104%
same,"viability, T/C",[7],109%
same,"viability, T/C",[8],101%
same,"viability, T/C","second compound 0.01 µM, first compound 0.000316 µM",114%
same,"viability, T/C","second compound 0.01 µM, first compound 0.001 µM",83.9%
same,"viability, T/C","second compound 0.01 µM, first compound 0.00316 µM",93.7%
same,"viability, T/C","second compound 0.01 µM, first compound 0.01 µM",79.3%
same,"viability, T/C",[9],99.5%
same,"viability, T/C",[10],94.1%
same,"viability, T/C","second compound 0.0316 µM, first compound 0.000316 µM",72.9%
same,"viability, T/C","second compound 0.0316 µM, first compound 0.001 µM",72.8%
same,"viability, T/C","second compound 0.0316 µM, first compound 0.00316 µM",85%
same,"viability, T/C","second compound 0.0316 µM, first compound 0.01 µM",71.4%
same,"viability, T/C",[11],75.1%
same,"viability, T/C",[12],64.8%
same,"viability, T/C","second compound 0.1 µM, first compound 0.000316 µM",40.9%
same,"viability, T/C","second compound 0.1 µM, first compound 0.001 µM",47.6%
same,"viability, T/C","second compound 0.1 µM, first compound 0.00316 µM",41.2%
same,"viability, T/C","second compound 0.1 µM, first compound 0.01 µM",34.1%
same,"viability, T/C",[13],40.7%
same,"viability, T/C",[14],39%
same,"viability, T/C","second compound 0.316 µM, first compound 0.000316 µM",18.9%
same,"viability, T/C","second compound 0.316 µM, first compound 0.001 µM",20.8%
same,"viability, T/C","second compound 0.316 µM, first compound 0.00316 µM",15.2%
same,"viability, T/C","second compound 0.316 µM, first compound 0.01 µM",17.1%
same,"viability, T/C",[15],14.8%
same,"viability, T/C",[16],15.1%
same,"viability, T/C","second compound 1 µM, first compound 0.000316 µM",5.24%
same,"viability, T/C","second compound 1 µM, first compound 0.001 µM",6.61%
same,"viability, T/C","second compound 1 µM, first compound 0.00316 µM",7.38%
same,"viability, T/C","second compound 1 µM, first compound 0.01 µM",7.19%
same,"viability, T/C",[17],5.03%
same,"viability, T/C",[18],6.71%
Cn1ncc(Cl)c1-c1cc(C(=O)NC(CN)Cc2cccc(F)c2)sc1Cl (configuration not stated),"viability, T/C",compound 0.0316 µM,102% [middle of 4 runs]
same,"viability, T/C",compound 0.316 µM,79.4% [middle of 4 runs]
same,"viability, T/C",compound 1 µM,81.8% [middle of 4 runs]
same,"viability, T/C",compound 3.16 µM,70.3% [middle of 4 runs]
same,"viability, T/C",compound 10 µM,89% [middle of 4 runs]
same,IC50,curve of compound,> 10 µM
CC1(C)CCC(Nc2ncc(C(F)(F)F)c(-c3c[nH]c4c(P(C)(C)=O)c(C#N)ccc34)n2)CN1 (configuration not stated),"viability, T/C",compound 0.0316 µM,66% (2×) and 68.7% and 70.4%
same,"viability, T/C",compound 0.1 µM,72% [middle of 4 runs]
same,"viability, T/C",compound 0.316 µM,69.9% [middle of 4 runs]
same,"viability, T/C",compound 1 µM,79.7% [middle of 4 runs]
same,"viability, T/C",compound 3.16 µM,79.9% [middle of 4 runs]
same,"viability, T/C",compound 10 µM,54.5% (2×) and 54.6% and 58.2%
same,IC50,curve of compound,> 10 µM

# — PubChem BioAssay AID1963959 (Molecular Pharmacology Branch, DTP, NCI, 2024)
